Results on twelve compounds are retold here after publication PMC4605843, “Cell-Penetrating Peptides Selectively Cross the Blood-Brain Barrier In Vivo” (PLoS ONE, 2015).

Like-named read-outs stand apart in the source and are kept apart here. Ends that are not written are not given here. Where only a bound is given, the exact number is not on record here.

Series [1] concerns BBB. Conditions: after i.p. injection, fluorimetry; ref [41] of S1 Table; cited from earlier work. The text has this: page 6: Supplementary Information S1 Table.
The subject of series [2] is blood-brain barrier (BBB). Description: Multiple time regression (MTR) analysis, blood-to-brain influx. The series is classed as in vivo, ICR-CD-1 mice.
Method: Shortly, 200 μl of the radioiodinated CPP solution (30000 cpm/μl) was injected into the right jugular externalis vein of anesthetized ICR-CD-1 mice, which were then decapitated at 1, 3, 5, 10, 12.5 and 15 min post injection, with first and last time points performed in duplicate, after which brains were collected and measured for radioactivity using a gamma counter (Wallac Wizard 1470, Perkin Elmer). Shortly before decapitation, blood was collected from the left carotid artery, which was centrifuged (10000 g, 15 min at 21°C) in order to measure the radioactivity of blood and serum. Dermorphin and radioiodinated BSA were used as positive and negative control, respectively. The blood-to-brain entry during the experimental period of 15 min was evaluated by plotting the ratio of brain (Am(T)) and serum activity (Cp(T)), corrected for the brain weight and serum volume, respectively, versus the exposure time (Θ), expressing the theoretical steady state serum level of the iodinated peptide at a given serum concentration [37, 73]. The exposure time is calculated as the integral of the arterial serum radioactivity over time divided by the radioactivity at time t. The integral is calculated through the trapezoidal rule of the log-transformed data [73]. In the linear part of the curve, assuming a two-compartmental BBB model, data can be fitted using a linear model from which the unidirectional influx rate (Kin), also referred to as unidirectional blood to brain clearance K1 [46], and the initial brain distribution volume (Vi) can be determined using the following equation according to Gjedde and Patlak [37–40]: Am(T)/Cp(T)=Abrain(T)/Aserum(T)=Kin⋅Θ+Vi with Θ = ∫0TCp(t) ⋅ dt/Cp(T) (1)
In series [3] the test system is brain parenchyma and capillaries. Description: Capillary depletion method: brain parenchyma/capillary distribution. The series is classed as in vivo, ICR-CD-1 mice. Conditions: mouse, in vivo, iv. On the procedure: The capillary depletion method was used to evaluate the distribution of the peptide between the brain parenchyma and capillaries. In summary (see Materials and Methods in [45]), 200 μl of a radiolabeled peptide solution (10000 cpm/μl) was injected in the jugular externalis vein of two anesthetized ICR-CD-1 mice. Ten minutes after IV injection, mice were decapitated and brains were collected and measured for radioactivity. […] The resulting homogenate was weighed and centrifuged at 5400 g for 30 min at 4°C, resulting in a pellet, i.e. capillaries, and supernatant, i.e. parenchyma and fat tissue, which were weighed and measured in the gamma counter. […] Compartmental distribution was calculated as follows: Fractioncapillaries or parenchyma (%)=[…] or parenchyma/[…]×100 (4)

The test system of series [4] is blood-brain barrier (BBB). Description: Brain-to-blood transport (efflux) after intracerebroventricular injection. Conditions: mouse; for t1/2,brain (half-time disappearance): in vivo. As to the method: Female, ICR-CD-1 mice (Harlan Laboratories, Venray, The Netherlands), aged 7 to 10 weeks and weighing 28–36 g, were used during the in vivo BBB transport experiments. All animal experiments were performed in accordance with the Ethical Committee principles of laboratory animal welfare. The protocol was approved by the Ethical Committee of the Faculty of Veterinary Science of Ghent University (Permit Numbers: 2009–052 and 2014–128). Prior to experiments, mice were anesthetized by intraperitoneal injection of a 40% urethane solution (3 g/kg) (Sigma-Aldrich, Diegem, Belgium).
For evaluation of the efflux of the peptides out of the brain, 1 μl of a radioiodinated peptide solution (25000 cpm/μl) was injected in the lateral ventricle of anesthetized ICR-CD-1 mice at a speed of 360 μl/h for 10 s using a syringe pump (KDS100, KR analytical, Cheshire, UK). […] The brain half-time disappearance (t1/2,brain) was calculated from the linear regression of the natural logarithm of the residual radioactivity in brain versus time as follows: t1/2,brain=ln(2)/kout (5) with kout defined as the efflux rate constant calculated as the absolute value of the slope of the linear regression, applying first order kinetics. An extensive description of the protocol can be found elsewhere.

Series [5] relates to blood-brain barrier (BBB). Description: Regional variation in brain influx (MTR, dissected brain regions). As to the method: The protocol of the multiple time regression (MTR) analysis to evaluate whether the peptides cross the BBB is described in detail elsewhere. […] Dermorphin and radioiodinated BSA were used as positive and negative control, respectively. […] The exposure time is calculated as the integral of the arterial serum radioactivity over time divided by the radioactivity at time t. The integral is calculated through the trapezoidal rule of the log-transformed data. In the linear part of the curve, assuming a two-compartmental BBB model, data can be fitted using a linear model from which the unidirectional influx rate (Kin), also referred to as unidirectional blood to brain clearance K1 [46], and the initial brain distribution volume (Vi) can be determined using the following equation according to Gjedde and Patlak: Am(T)/Cp(T)=Abrain(T)/Aserum(T)=Kin⋅Θ+Vi with Θ = ∫0TCp(t) ⋅ dt/Cp(T) (1)
Different dissected brain regions were weighed and measured in the gamma counter. The unidirectional influx and initial distribution volume of the iodinated peptides for the different brain regions are determined using Eq 1.
Generally, regression lines were computed using the least squares method. Regression lines of the ratio of the brain-to-serum radioactivity versus the exposure time obtained during the evaluation of the regional brain distribution and the used brain influx mechanism, were statistically compared using the Prism 6 software (GraphPad, La Jolla, USA).

Series [6] has as its system blood-brain barrier (BBB). Description: Classification of peptides according to their BBB influx. The text has this:
This peptide is derived from the murine vascular endothelial (VE)-cadherin, located in the adherens junctions between the vascular endothelial cells, and constitutes the 13 cytosolic amino acids closest to the membrane and five amino acids from the C-terminus of the transmembrane region (615–632).

Series [7] concerns cellular uptake. Details: method as in Stalmans et al.[1]. Conditions: cell-penetrating (CP-) response, quantitative expression of cellular influx; ref Stalmans et al.[1]; cited from earlier work.
In series [8] the test system is brain. Conditions: cited from earlier work; for Kin: rat, in vivo.
The test system of series [9] is brain. Conditions: cited from earlier work.
Series [10] has as its system blood-brain barrier (BBB). Description: Saturability of brain influx: MTR with and without excess unlabeled peptide. On the set-up: species or system ICR-CD-1 mice. Conditions: mouse, in vivo, iv. As to the method:
This dose of 20 μg was determined based on the amount of peptide injected during a MTR experiment estimated based on the specific activity and taking into account the amount of non-radioactively iodinated peptide present in the injected dose. […] During this experiment, peptides are radiolabeled using a no-carrier added method in order that only radioactively labeled peptide was injected.

For series [11] the following is noted: 15 min post IV injection of radiolabeled peptide, % injected dose, n = 2, ICR-CD-1 mice; described in words.
The subject of series [12] is brain. Conditions: mouse, in vivo; cited from earlier work.
The conditions of series [13]: activity of the 68Ga-DOTA labeled peptide; ref [49]; cited from earlier work. An excerpt:
For pVEC and Tat 47–57, a very high liver concentration was observed compared to the other tissues, which can indicate metabolization, but also uptake of the peptides and their metabolites in hepatocytes.

The mark [14] stands for this setting: 125I-radioiodinated, IV, ICR-CD-1 mice, MTR 1-15 min, ± 65% confidence limits.

VIP: cargo peptide VIP alone: the Brain uptake efficiency in series [1] was 0.78.
Consider “RRLSYSRRRF-NH2 [SynB3, short cationic cell-penetrating peptide]”, for which, in [2] (mouse, in vivo, iv), the “K1 (unidirectional clearance, slope of the initial phase), biphasic model” value came out at 29.84 ± 8.42 µL/g/min; the “Kin (unidirectional influx rate), linear Gjedde-Patlak model” value (“Kin (unidirectional influx rate)” below) stood at 5.63 ± 1.83 µL/g/min; the “Maximal ratio of brain-to-serum radioactivity” value is listed as “about 70 μl/g”. For the same compound, the Parenchymal fraction in [3] was 77%. Besides, in series [4], the “kout (efflux transfer constant)” value came to 0.05 ± 0.01 min⁻¹ and the “t1/2,brain (half-time disappearance)” value was 15 min. In series [5] (mouse, in vivo), the “Difference in brain influx rates between the eight dissected brain regions” value (shortened to “Difference”) is reported as “no statistically significant difference”. In addition, the BBB influx class entry in [6] was “class 5”. The CP-response in series [7] is recorded as 0.126.
`COc1cccc2c1C(=O)c1c(O)c3c(c(O)c1C2=O)C[C@@](O)(C(=O)CO)C[C@@H]3O[C@H]1C[C@H](N)[C@H](O)[C@H](C)O1` [Doxorubicin]: in series [8], the Kin was 0.25 µL/s/g. The Vd in series [9] (mouse, in vivo) is less than 100 µL/g.
For the compound “YGRKKRRQRRR-NH2 [Tat 47–57, short cationic cell-penetrating peptide]”, the “K1 (unidirectional clearance, slope of the initial phase), biphasic model” value in [2] (setting [14]) was 13.50 ± 3.88 µL/g/min. In [2] (mouse, in vivo, iv), the “K (net clearance, slope of the plateau phase), biphasic model” value was 0.27 ± 0.46 µL/g/min and the “Kin (unidirectional influx rate)” value was found to be 4.73 ± 1.23 µL/g/min. In addition, the Parenchymal fraction in series [3] worked out at 79%. In addition, in series [4], the “kout (efflux transfer constant)” value is 0.21 ± 0.08 min⁻¹ and the “t1/2,brain (half-time disappearance)” value was 3 min. Also, the BBB influx class result in series [6] is recorded as “class 5”. The CP-response in series [7] is given as 0.309.
Consider Dalargin, for which the Vd in series [8] (in situ brain perfusion (single time) in rats, ref [2] of S1 Table) was 16.7 µL/g.
Consider “LLIILRRRIRKQAHAHSK-NH2 [pVEC, cell-penetrating peptide derived from murine VE-cadherin (615–632); tested radioiodinated]”, for which, in [2] (mouse, in vivo, iv), the “Kin (unidirectional influx rate)” value worked out at 6.02 ± 0.29 µL/g/min and the “Maximal ratio of brain-to-serum radioactivity” value was “about 180 μl/g”. In addition, the Parenchymal fraction in [3] turned out to be 80%. For the same compound, the “kout (efflux transfer constant)” value in [4] was determined as 0.10 ± 0.11 min⁻¹. Further, the “Difference” value in [5] (mouse, in vivo) is “significantly differed”. In series [5] (mouse, in vivo, iv), the “Kin, cerebellum” value is 5.61 [5.12, 6.10] μl/(g × min); the “Kin, frontal cortex” value is 4.84 [4.66, 5.02] μl/(g × min); the “Kin, hippocampus” value is 3.94 [3.51, 4.37] μl/(g × min); the “Kin, midbrain” value was 5.32 [5.17, 5.46] μl/(g × min). Moreover, in [5] (mouse, in vivo, iv), the “Kin, occipital and parietal cortex” value is 5.03 [4.73, 5.32] μl/(g × min); the “Kin, pons medulla” value was 4.51 [3.87, 5.15] μl/(g × min); the “Kin, striatum” value is 4.07 [3.77, 4.37] μl/(g × min); the “Kin, thalamus and hypothalamus” value is 4.12 [3.86, 4.38] μl/(g × min). In [5] (mouse, in vivo, iv), the “Kin, whole brain” value was 6.04 [5.78, 6.30] μl/(g × min); the “Vi, cerebellum” value is 21.02 [15.09, 26.95] μl/g; the “Vi, frontal cortex” value was 12.93 [10.77, 15.09] μl/g; the “Vi, hippocampus” value was 9.33 [4.13, 14.54] μl/g. Also, in series [5] (mouse, in vivo, iv), the “Vi, midbrain” value is 13.88 [12.15, 15.62] μl/g; the “Vi, occipital and parietal cortex” value was 16.61 [13.02, 20.19] μl/g; the “Vi, pons medulla” value was 36.06 [28.34, 43.78] μl/g; the “Vi, striatum” value was 11.47 [7.81, 15.13] μl/g. In series [5] (mouse, in vivo, iv), the “Vi, thalamus and hypothalamus” value is 17.72 [11.58, 17.86] μl/g; the “Vi, whole brain” value is 24.37 [21.23, 27.51] μl/g. Moreover, in [10], the “Vi with excess dose of unlabeled peptide” value is 1 µL/g. Further, in series [6], the BBB influx class result was “class 5”. Further, the CP-response in series [7] is on record as 1.318.
Dermorphin [reference compound]: the “Kin (unidirectional influx rate)” value in series [2] (125I-radioiodinated peptide, IV jugular vein 200 μl (30000 cpm/μl), anesthetized female ICR-CD-1 mice, 1-15 min, brain/serum radioactivity (gamma counter) vs exposure time, whole brain, ± 65% confidence limits, pVEC, SynB3, TP10: two experiments fitted together) was determined as 0.63 ± 0.10 µL/g/min. Also, in [2] (125I-radioiodinated, IV, ICR-CD-1 mice, MTR 1-15 min, whole brain, ± 65% confidence limits), the “Vi (initial brain distribution volume), linear Gjedde-Patlak model” value turned out to be 13.98 ± 0.79 µL/g. Besides, in series [2] (setting [14]), the “K1 (unidirectional clearance, slope of the initial phase), biphasic model” value is 2.54 ± 0.50 µL/g/min; the “K (net clearance, slope of the plateau phase), biphasic model” value stood at 0.03 ± 0.06 µL/g/min; the “Vg (tissue brain distribution volume), biphasic model” value came out at 13.72 ± 2.17 µL/g. The “Difference” value in series [5] (comparison of slopes (Kin), Prism 6, P threshold 0.05, ICR-CD-1 mice) is “no statistically significant difference”. The Relative tissue distribution entry in series [11] was “high liver distributions”.
Consider TP10, for which the CP-response in series [7] is on record as 1.641.
With `CC(C)c1nc(CN(C)C(=O)N[C@H](C(=O)N[C@@H](Cc2ccccc2)C[C@H](O)[C@H](Cc2ccccc2)NC(=O)OCc2cncs2)C(C)C)cs1` [Ritonavir], the Brain drug level in [12] is given as 0.1 µg/g.
Take `CC1(C)S[C@@H]2[C@H](NC(=O)Cc3ccccc3)C(=O)N2[C@H]1C(=O)O` [Benzylpenicillin]: in series [8], the Kin was 0.15 µL/s/g.
With `CN1CC[C@]23c4c5ccc(O)c4O[C@H]2[C@@H](O[C@@H]2O[C@H](C(=O)O)[C@@H](O)[C@H](O)[C@H]2O)C=C[C@H]3[C@H]1C5` [Morphine-6-glucuronide], the Kin in series [9] (in situ brain perfusion in mice, ref [6] of S1 Table) was 0.024 µL/s/g.
Turning to “^68Ga-DOTA labeled pVEC: 68Ga-DOTA labeled pVEC of a literature study (TLLIILRRRIRKQAHAHS; also: 68Ga-DOTA label (site not given here); UniProt P55284 615-632, looked up, fragment)”, in [13], the “(human) serum half-life” value is “a few hours”.
